Assay [1] is filed under the species Homo sapiens. Kind of assay: Selectivity ratio of IC50 for human CYP11B2 to IC50 for human CYP11B1.
For assay [2], the target named is T1, Cytochrome P450 11B2, mitochondrial (Homo sapiens, UniProt P19099).
T1 sequence (P19099 whole entry): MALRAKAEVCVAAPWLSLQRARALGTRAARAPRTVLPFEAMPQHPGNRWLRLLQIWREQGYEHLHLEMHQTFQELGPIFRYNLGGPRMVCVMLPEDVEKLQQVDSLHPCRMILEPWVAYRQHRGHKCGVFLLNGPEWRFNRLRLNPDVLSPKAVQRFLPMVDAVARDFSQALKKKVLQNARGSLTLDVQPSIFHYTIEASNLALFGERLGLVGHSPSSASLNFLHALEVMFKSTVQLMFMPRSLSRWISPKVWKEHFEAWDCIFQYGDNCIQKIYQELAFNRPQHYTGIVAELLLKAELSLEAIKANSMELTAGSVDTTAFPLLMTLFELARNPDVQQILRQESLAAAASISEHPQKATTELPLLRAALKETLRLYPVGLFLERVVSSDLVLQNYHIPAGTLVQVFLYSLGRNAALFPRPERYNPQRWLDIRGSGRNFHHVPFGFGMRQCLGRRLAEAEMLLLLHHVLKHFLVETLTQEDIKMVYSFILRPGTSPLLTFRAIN
Briefly: Inhibition of human CYP11B2 expressed in hamster V79 MZh cells using deoxycorticosterone substrate. The class given is cell-based.

The target of assay [3] is T2, Cytochrome P450 11B1, mitochondrial (Homo sapiens, UniProt P15538).
T2 sequence (P15538 whole entry): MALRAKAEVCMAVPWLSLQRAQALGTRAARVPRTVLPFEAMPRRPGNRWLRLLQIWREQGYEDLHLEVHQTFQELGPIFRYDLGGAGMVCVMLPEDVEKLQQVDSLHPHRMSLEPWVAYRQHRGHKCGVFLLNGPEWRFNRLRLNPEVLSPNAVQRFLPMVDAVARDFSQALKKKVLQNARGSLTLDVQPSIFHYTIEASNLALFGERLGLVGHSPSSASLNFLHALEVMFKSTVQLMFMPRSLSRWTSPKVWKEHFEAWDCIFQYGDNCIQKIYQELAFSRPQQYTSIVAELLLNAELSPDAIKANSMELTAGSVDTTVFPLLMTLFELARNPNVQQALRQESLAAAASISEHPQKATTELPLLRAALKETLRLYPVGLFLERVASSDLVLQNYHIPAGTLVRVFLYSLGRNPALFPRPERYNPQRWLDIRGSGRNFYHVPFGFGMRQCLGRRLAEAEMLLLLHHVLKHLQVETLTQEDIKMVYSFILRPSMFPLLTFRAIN
Briefly: Inhibition of human CYP11B1 expressed in hamster V79 MZh cells using deoxycorticosterone substrate. The class given is cell-based.

The species entered for assay [4] is Homo sapiens. Kind of assay: Selectivity ratio of IC50 for human placental CYP19 to IC50 for human CYP11B1.
Another assay addresses T3, Aromatase (Homo sapiens, UniProt P11511).
T3 sequence (P11511 whole entry): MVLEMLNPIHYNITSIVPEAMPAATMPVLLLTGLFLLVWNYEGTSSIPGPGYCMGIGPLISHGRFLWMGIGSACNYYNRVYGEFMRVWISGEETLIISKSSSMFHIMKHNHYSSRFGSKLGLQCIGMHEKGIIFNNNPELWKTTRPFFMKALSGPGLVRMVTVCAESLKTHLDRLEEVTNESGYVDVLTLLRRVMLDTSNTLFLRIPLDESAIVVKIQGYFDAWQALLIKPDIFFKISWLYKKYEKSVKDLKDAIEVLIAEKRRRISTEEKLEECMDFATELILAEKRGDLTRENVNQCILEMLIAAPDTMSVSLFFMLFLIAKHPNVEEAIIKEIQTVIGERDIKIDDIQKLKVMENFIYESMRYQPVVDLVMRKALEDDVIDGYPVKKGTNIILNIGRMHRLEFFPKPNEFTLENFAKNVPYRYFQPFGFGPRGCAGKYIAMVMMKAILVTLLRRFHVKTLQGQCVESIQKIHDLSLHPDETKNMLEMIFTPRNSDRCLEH
Briefly: Inhibition of human placental CYP19 using androstenedione substrate.

The species named for assay [5] is Homo sapiens. Briefly: Selectivity ratio of IC50 for human CYP17 to IC50 for human CYP11B1.
In assay [6] the target is T4, Steroid 17-alpha-hydroxylase/17,20 lyase (Homo sapiens, UniProt P05093).
T4 sequence (P05093 whole entry): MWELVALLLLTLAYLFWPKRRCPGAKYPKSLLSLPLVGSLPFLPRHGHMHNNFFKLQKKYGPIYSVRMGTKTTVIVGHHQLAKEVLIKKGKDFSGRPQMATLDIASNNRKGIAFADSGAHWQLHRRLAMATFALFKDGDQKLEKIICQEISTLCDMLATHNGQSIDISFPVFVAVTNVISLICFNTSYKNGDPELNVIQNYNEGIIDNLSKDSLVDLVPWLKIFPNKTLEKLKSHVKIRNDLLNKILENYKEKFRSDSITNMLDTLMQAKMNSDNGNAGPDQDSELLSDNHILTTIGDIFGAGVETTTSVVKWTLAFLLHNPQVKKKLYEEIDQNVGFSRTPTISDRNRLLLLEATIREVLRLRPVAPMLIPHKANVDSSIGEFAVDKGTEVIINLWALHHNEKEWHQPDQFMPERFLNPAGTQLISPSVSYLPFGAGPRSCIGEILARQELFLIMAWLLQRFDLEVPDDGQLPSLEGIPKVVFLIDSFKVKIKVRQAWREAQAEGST
Kind of assay: Inhibition of human CYP17 expressed in Escherichia coli using progesterone substrate.

Assay [7] concerns the target T5, Cytochrome P450 11B1, mitochondrial (Rattus norvegicus, UniProt P15393).
T5 sequence (P15393 whole entry): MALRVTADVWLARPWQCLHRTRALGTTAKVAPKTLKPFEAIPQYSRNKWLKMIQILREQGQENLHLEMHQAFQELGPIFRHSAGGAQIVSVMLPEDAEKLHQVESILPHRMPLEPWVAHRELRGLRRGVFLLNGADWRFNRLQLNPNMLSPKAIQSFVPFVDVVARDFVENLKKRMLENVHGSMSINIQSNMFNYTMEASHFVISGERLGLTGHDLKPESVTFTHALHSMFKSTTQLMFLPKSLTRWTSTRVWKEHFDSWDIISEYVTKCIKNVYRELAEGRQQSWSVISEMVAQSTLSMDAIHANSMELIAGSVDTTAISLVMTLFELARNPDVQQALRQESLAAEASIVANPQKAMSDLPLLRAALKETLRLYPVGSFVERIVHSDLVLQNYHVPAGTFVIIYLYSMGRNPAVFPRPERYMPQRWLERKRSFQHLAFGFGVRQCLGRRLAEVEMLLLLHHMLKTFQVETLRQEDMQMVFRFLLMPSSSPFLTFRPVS
Briefly: Inhibition of rat CYP11B1 at 2 uM.

In the case of `N#Cc1ccc(C(c2cc3c4c(c2)CCN4C(=O)CC3)n2ccnc2)cc1` (configuration not stated), the Ratio IC50 in the assay filed under Homo sapiens [1] came to 4.4. The figures for the IC50 in assay [2] and in assay [3] were 308 nM and 70 nM, respectively.

With `O=C1CCc2cc(C(C3CC3)n3ccnc3)cc3c2N1CC3` (stereo in doubt; (+)-4), in assay [3], the IC50 turned out to be 10.3 nM.

As to `CCC(c1cc2c3c(c1)CCN3C(=O)CC2)n1ccnc1` (configuration not stated), the Ratio IC50 in the assay listed under Homo sapiens [1] came to 0.9. In addition, the IC50 in assay [2] came to 5.8 nM; in assay [3] it was 6.5 nM.

Turning to `O=C1CCc2cc(C(c3ccccc3F)n3ccnc3)cc3c2N1CC3` (configuration not stated), in the assay listed under Homo sapiens [1], the Ratio IC50 was 0.5. In addition, the IC50 in assay [2] is 19 nM; in assay [3] it was 40 nM.

As for `COc1cccc(C(c2cc3c4c(c2)CCN4C(=O)CC3)n2ccnc2)c1` (configuration not stated), the Ratio IC50 in the assay listed under Homo sapiens [1] is 0.8. Moreover, the half-maximal inhibitory concentration (IC50) worked out at 88 nM in assay [2] and 110 nM in assay [3].

With `O=C1CCc2cc(C(c3ccc(F)cc3)n3ccnc3)cc3c2N1CC3` (configuration not stated), the Ratio IC50 in the assay filed under Homo sapiens [1] was found to be 1.1. Moreover, the IC50 in assay [2] was 29 nM; in assay [3], 27 nM.

On to `O=C1CCc2cc(C(c3cccs3)n3ccnc3)cc3c2N1CC3` (configuration not stated), for which the Ratio IC50 in the assay filed under Homo sapiens [1] stood at 1.4. In addition, the results for the IC50 in assay [2] and in assay [3] were 18 nM and 13 nM, respectively.

For `O=C1CCc2cc(C(c3ccccc3)n3ccnc3)cc3c2N1CC3` (configuration not stated), the Ratio IC50 in the assay listed under Homo sapiens [1] worked out at 0.7. In addition, the figures for the IC50 in assay [2] and in assay [3] were 33 nM and 50 nM, respectively.

`N#Cc1cccc(C(c2cc3c4c(c2)CCN4C(=O)CC3)n2ccnc2)c1` (configuration not stated): in the assay listed under Homo sapiens [1], the Ratio IC50 amounted to 2.1. Besides, the IC50 in assay [2] is 304 nM; in assay [3], 144 nM.

Turning to `CC(c1cc2c3c(c1)CCN3C(=O)CC2)(n1ccnc1)n1ccnc1`, the Ratio IC50 in the assay listed under Homo sapiens [1] was found to be 1.9. In addition, the results for the IC50 in assay [2] and in assay [3] were 851 nM and 438 nM, respectively.

For the molecule `CC(c1cc2c3c(c1)CCN3C(=O)CC2)n1ccnc1` (configuration not stated), the Ratio IC50 in the assay filed under Homo sapiens [1] came to 0.9. Further, the half-inhibitory concentration (IC50) in assay [2] is 15 nM; in assay [3], 17 nM.

In the case of `O=C1CCc2cc(C(C3CCC3)n3ccnc3)cc3c2N1CC3` (configuration not stated), the Ratio IC50 in the assay filed under Homo sapiens [1] came to 1.2. The IC50 came to 4.2 nM in assay [2] and 3.4 nM in assay [3].

In assay [3], `O=C1CCc2cc(C(C3CC3)n3ccnc3)cc3c2N1CC3` (single isomer, unassigned; (-)) returned a half-maximal inhibitory concentration (IC50) of 1.5 nM.

With `COc1ccc(C(c2cc3c4c(c2)CCN4C(=O)CC3)n2ccnc2)cc1` (configuration not stated), the Ratio IC50 was 1.1 in the assay listed under Homo sapiens [4], more than 125 in the assay filed under Homo sapiens [5] and 2.6 in the assay filed under Homo sapiens [1]. Also, the IC50 on Aromatase was 43 nM; in assay [6], more than 5000 nM; in assay [2], 104 nM; in assay [3], 40 nM.

As to `C=C(c1cc2c3c(c1)CCN3C(=O)CC2)n1ccnc1`, the values for the Ratio IC50 in the assay listed under Homo sapiens [4], in the assay filed under Homo sapiens [5] and in the assay filed under Homo sapiens [1] were 0.9, more than 260 and 5.3, respectively. In addition, the IC50 was 17 nM at Aromatase, more than 5000 nM in assay [6], 100 nM in assay [2] and 19 nM in assay [3].

Take `O=C1CCc2cc(C(c3ccco3)n3ccnc3)cc3c2N1CC3` (configuration not stated): the Ratio IC50 in the assay listed under Homo sapiens [1] was found to be 2.4. Moreover, the figures for the IC50 in assay [2] and in assay [3] were 47 nM and 20 nM, respectively.

In the case of `CC(C)C(c1cc2c3c(c1)CCN3C(=O)CC2)n1ccnc1` (configuration not stated), the Ratio IC50 in the assay filed under Homo sapiens [4] was more than 357; in the assay filed under Homo sapiens [5] it was 1110; in the assay listed under Homo sapiens [1], 2.7. The IC50 against Aromatase was more than 500 nM; in assay [6], 1550 nM; in assay [2], 3.8 nM; in assay [3] it was 1.4 nM.

`O=C1CCc2cc(C(c3cccc(F)c3)n3ccnc3)cc3c2N1CC3` (configuration not stated): in the assay filed under Homo sapiens [1], the Ratio IC50 stood at 0.6. For the same molecule, the IC50 in assay [2] was determined as 18 nM; in assay [3], 29 nM.

`O=C1CCc2cc(C(C3CC3)n3ccnc3)cc3c2N1CC3` (racemic) returned an inhibition at 2 µM in assay [7] of 91%. For the same molecule, the IC50 at Aromatase worked out at 228 nM; in assay [6] it was 2880 nM; in assay [2], 24 nM; in assay [3], 2.2 nM.

The IC50 is the point on the concentration scale where inhibition reaches its midpoint. Usually inhibition stands for the relative decrease from the control value, in per cent. Lower therefore signals a response near the control.

For the origin of these results see ChEMBL document CHEMBL2163333, “Novel imidazol-1-ylmethyl substituted 1,2,5,6-tetrahydropyrrolo[3,2,1-ij]quinolin-4-ones as potent and selective CYP11B1 inhibitors for the treatment of Cushing's syndrome” (J Med Chem, 2012).
